{"source": "PubChem BioAssay AID330", "about": "(DTP/NCI, 2004)", "tested_on": "P388 leukemia ip, CD2F1 mice, survival T/C", "test": "NCI In Vivo Anticancer Drug Screen. Data for tumor model P388 Leukemia (intraperitoneal) in CD2F1 (CDF1) mice", "details": "endpoint: median survival time, higher = longer survival", "summary_of_the_method": "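Mice carrying the transplanted tumor received test compound or vehicle. Survival was recorded in each group, and the value is the treated-group measurement divided by that of the vehicle-treated control group.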", "key": {"[1]": {"details": "dose: 50.0 mg/kg/injection, schedule: Q01DX009 (ip), vehicle: saline with Tween-80"}, "[2]": {"details": "dose: 100.0 mg/kg/injection, schedule: Q01DX009 (ip), vehicle: saline with Tween-80"}, "[3]": {"details": "dose: 50.0 mg/kg/injection, schedule: Q01DX005 (ip), vehicle: saline"}, "[4]": {"details": "dose: 50.0 mg/kg/injection, schedule: Q01DX005 (ip), vehicle: saline with Tween-80"}, "[5]": {"details": "dose: 100.0 mg/kg/injection, schedule: Q01DX005 (ip), vehicle: saline with Tween-80"}, "[6]": {"details": "dose: 200.0 mg/kg/injection, schedule: Q01DX009 (ip), vehicle: saline with Tween-80"}, "[7]": {"details": "dose: 60.0 mg/kg/injection, schedule: Q01DX005 (ip), vehicle: saline with Tween-80"}, "[8]": {"details": "dose: 120.0 mg/kg/injection, schedule: Q01DX005 (ip), vehicle: saline with Tween-80"}, "[9]": {"details": "dose: 240.0 mg/kg/injection, schedule: Q01DX005 (ip), vehicle: saline with Tween-80"}, "[10]": {"details": "dose: 12.5 mg/kg/injection, schedule: Q01DX005 (ip), vehicle: saline"}}, "note": "“And” between values parts separate entries of the source, which are not always exact repeats. Equal entries are not always repeated. Toxic doses and inconclusive results are not listed."}
{"smiles": "O=S(=O)(O)c1ccc2c(N=Nc3ccccc3[As](=O)(O)O)c(O)c(S(=O)(=O)O)cc2c1", "values": [{"measurement": "T/C", "setting": "[1]", "value": "104 % of control"}, {"measurement": "T/C", "setting": "[2]", "value": "113 % of control"}]}
{"smiles": "CN(C)CCN1c2ccccc2Oc2ccccc21", "values": [{"measurement": "T/C", "setting": "[3]", "value": "104 % of control"}, {"measurement": "T/C", "setting": "dose: 100.0 mg/kg/injection, schedule: Q01DX005 (ip), vehicle: saline", "value": "95 % of control"}]}
{"smiles": "O=C1CC(C(=O)O)N(C(=O)Oc2ccccc2)C(C(=O)O)C1", "note": "(centres undefined)", "values": [{"measurement": "T/C", "setting": "dose: 4.38 mg/kg/injection, schedule: Q01DX005 (ip), vehicle: Klucel (hydroxypropylcellulose) (HPC)", "value": "98 % of control"}, {"measurement": "T/C", "setting": "dose: 8.75 mg/kg/injection, schedule: Q01DX005 (ip), vehicle: Klucel (hydroxypropylcellulose) (HPC)", "value": "105 % of control"}, {"measurement": "T/C", "setting": "dose: 17.5 mg/kg/injection, schedule: Q01DX005 (ip), vehicle: Klucel (hydroxypropylcellulose) (HPC)", "value": "101 % of control"}]}
{"smiles": "O=C1[N-]C(=S)c2cccn21.O=C1[N-]C(=S)c2cccn21.[Pd+2]", "values": [{"measurement": "T/C", "setting": "dose: 12.5 mg/kg/injection, schedule: Q01DX005 (ip), vehicle: saline with Tween-80", "value": "103 % of control"}, {"measurement": "T/C", "setting": "dose: 25.0 mg/kg/injection, schedule: Q01DX005 (ip), vehicle: saline with Tween-80", "value": "103 % of control"}, {"measurement": "T/C", "setting": "[4]", "value": "99 % of control"}, {"measurement": "T/C", "setting": "[5]", "value": "99 % of control"}]}
{"smiles": "CC(C)(C)NCC(O)COc1cccc2c1CCC(=O)N2", "note": "(centres undefined)", "values": [{"measurement": "T/C", "setting": "[1]", "value": "100 % of control"}, {"measurement": "T/C", "setting": "[2]", "value": "102 % of control"}, {"measurement": "T/C", "setting": "[6]", "value": "97 % of control"}]}
{"smiles": "CN(C)CCC(/C=C/c1ccco1)=N\\NC(=S)Nc1ccc(Cl)cc1", "values": [{"measurement": "T/C", "setting": "dose: 100.0 mg/kg/injection, schedule: Q01DX001 (ip), vehicle: saline with Tween-80", "value": "97 % of control"}, {"measurement": "T/C", "setting": "dose: 200.0 mg/kg/injection, schedule: Q01DX001 (ip), vehicle: saline with Tween-80", "value": "101 % of control"}, {"measurement": "T/C", "setting": "dose: 400.0 mg/kg/injection, schedule: Q01DX001 (ip), vehicle: saline with Tween-80", "value": "103 % of control"}]}
{"smiles": "Cc1cc(C)c(OC(=O)N(CCCl)N=O)c(C)c1", "values": [{"measurement": "T/C", "setting": "dose: 3.12 mg/kg/injection, schedule: Q01DX001 (ip), vehicle: saline with Tween-80", "value": "111 % of control"}, {"measurement": "T/C", "setting": "dose: 6.25 mg/kg/injection, schedule: Q01DX001 (ip), vehicle: saline with Tween-80", "value": "116 % of control"}]}
{"smiles": "Cc1ccc2no[n+]([O-])c2c1[N+](=O)[O-]", "values": [{"measurement": "T/C", "setting": "[4]", "value": "118 % of control and 119 % of control"}, {"measurement": "T/C", "setting": "[5]", "value": "121 % of control"}, {"measurement": "T/C", "setting": "dose: 200.0 mg/kg/injection, schedule: Q01DX005 (ip), vehicle: saline with Tween-80", "value": "150 % of control"}]}
{"smiles": "CCCCC(CCCCCC(CCCC)NCc1ccc2c(c1)OCO2)NCc1ccc2c(c1)OCO2", "note": "(centres undefined)", "values": [{"measurement": "T/C", "setting": "dose: 3.12 mg/kg/injection, schedule: Q01DX009 (ip), vehicle: Klucel (hydroxypropylcellulose) (HPC)", "value": "102 % of control"}, {"measurement": "T/C", "setting": "dose: 6.25 mg/kg/injection, schedule: Q01DX009 (ip), vehicle: Klucel (hydroxypropylcellulose) (HPC)", "value": "97 % of control"}, {"measurement": "T/C", "setting": "dose: 12.5 mg/kg/injection, schedule: Q01DX009 (ip), vehicle: Klucel (hydroxypropylcellulose) (HPC)", "value": "100 % of control and 112 % of control"}]}
{"smiles": "O=C1NC(=O)C(Cc2ccc(N(CCO)CCO)cc2)(c2ccccc2)N1", "note": "(centres undefined)", "values": [{"measurement": "T/C", "setting": "dose: 50.0 mg/kg/injection, schedule: Q01DX005 (ip), vehicle: Klucel (hydroxypropylcellulose) (HPC)", "value": "108 % of control and 109 % of control and 116 % of control"}, {"measurement": "T/C", "setting": "dose: 100.0 mg/kg/injection, schedule: Q01DX005 (ip), vehicle: Klucel (hydroxypropylcellulose) (HPC)", "value": "111 % of control and 121 % of control"}, {"measurement": "T/C", "setting": "dose: 200.0 mg/kg/injection, schedule: Q01DX005 (ip), vehicle: Klucel (hydroxypropylcellulose) (HPC)", "value": "117 % of control and 120 % of control"}, {"measurement": "T/C", "setting": "dose: 400.0 mg/kg/injection, schedule: Q01DX005 (ip), vehicle: Klucel (hydroxypropylcellulose) (HPC)", "value": "110 % of control and 124 % of control"}]}
{"smiles": "CC(=O)Nc1cn(C)cc1[N+](=O)[O-]", "values": [{"measurement": "T/C", "setting": "[1]", "value": "102 % of control"}, {"measurement": "T/C", "setting": "[2]", "value": "103 % of control"}, {"measurement": "T/C", "setting": "[6]", "value": "104 % of control"}]}
{"smiles": "N=c1c2ccccc2cc2c3ccccc3ccn12", "values": [{"measurement": "T/C", "setting": "[7]", "value": "115 % of control"}, {"measurement": "T/C", "setting": "[8]", "value": "99 % of control"}, {"measurement": "T/C", "setting": "[9]", "value": "108 % of control"}]}
{"smiles": "CC(C)(C)[NH2+][B-](F)(F)F", "values": [{"measurement": "T/C", "setting": "dose: 6.25 mg/kg/injection, schedule: Q01DX005 (ip), vehicle: saline", "value": "94 % of control"}, {"measurement": "T/C", "setting": "[10]", "value": "103 % of control"}]}
{"smiles": "CCC(CNc1cc(OC)cc2cccnc12)NC1CCCCC1", "note": "(centres undefined)", "values": [{"measurement": "T/C", "setting": "[10]", "value": "102 % of control"}, {"measurement": "T/C", "setting": "dose: 25.0 mg/kg/injection, schedule: Q01DX005 (ip), vehicle: saline", "value": "99 % of control"}, {"measurement": "T/C", "setting": "[3]", "value": "100 % of control and 102 % of control"}]}
{"smiles": "COc1ccc(C(O)C2CC(=O)NN=C2C)cc1OC", "note": "(centres undefined)", "values": [{"measurement": "T/C", "setting": "[7]", "value": "100 % of control"}, {"measurement": "T/C", "setting": "[8]", "value": "100 % of control"}, {"measurement": "T/C", "setting": "[9]", "value": "99 % of control"}]}
{"smiles": "S=C([S-])N1CC[n+]2c(-c3ccccc3)csc21", "values": [{"measurement": "T/C", "setting": "dose: 50.0 mg/kg/injection, schedule: Q01DX009 (ip), vehicle: saline", "value": "101 % of control"}, {"measurement": "T/C", "setting": "dose: 100.0 mg/kg/injection, schedule: Q01DX009 (ip), vehicle: saline", "value": "100 % of control"}, {"measurement": "T/C", "setting": "dose: 200.0 mg/kg/injection, schedule: Q01DX009 (ip), vehicle: saline", "value": "91 % of control"}]}
{"smiles": "CCCNC(=O)NS(=O)(=O)c1ccc(Cl)cc1", "values": [{"measurement": "T/C", "setting": "dose: 50.0 mg/kg/injection, schedule: Q04DX003 (ip), vehicle: saline with Tween-80", "value": "102 % of control"}, {"measurement": "T/C", "setting": "dose: 100.0 mg/kg/injection, schedule: Q04DX003 (ip), vehicle: saline with Tween-80", "value": "109 % of control"}, {"measurement": "T/C", "setting": "dose: 200.0 mg/kg/injection, schedule: Q04DX003 (ip), vehicle: saline with Tween-80", "value": "100 % of control"}]}
